Results published in US7687651B2, “Method for the preparation of trans-or cis-diammoniumdichlorodihydroxoplatinum(IV) and the use thereof in the production of pharmaceutical active substances” (priority 2003, dated 2010).

Legend:
Type in all cases: cell-based, human
[1] = test system: A498 Renal cells; assay: Growth inhibition test on A498 cells; details: Table 1
Description: (§1) Growth inhibition tests on various human cell lines show the different activities of cisplatin, cis-oxoplatin and oxaliplatin. […] The following Table illustrates the results produced with cisplatin, oxoplatin, carboplatin and oxaliplatin (the values specified are IC50 values in μg/ml, i.e., the concentration where 50% of the cells survive, nd=not determined; res=resistant=non-sensitive or IC50 value cannot be determined at a concentration of up to 40 μg/ml; IC=inhibition concentration).

[2] = test system: C320DM Colon carcinoma; assay: Growth inhibition test on C320DM cells; details: Table 1
Description: as §1

[3] = test system: BxPC3 Pancreatic cancer; assay: Growth inhibition test on BxPC3 cells
Description: (§2) The effect of cis-oxoplatin Ca and cis-oxoplatin was compared on 10 cell lines (Table 4).
(§3) (IC50 values specified in μg/ml; the test was performed as a formazan test).

[4] = test system: PC3 Prostate; assay: Growth inhibition test on PC3 cells; details: for IC50: PC3 Prostate; for % Survival: PC3 cells
Description: as §1

[5] = test system: HT29 Colon carcinoma; assay: Growth inhibition test on HT29 cells
Description: as §2, §3

[6] = test system: HCT8 Colon carcinoma; assay: Growth inhibition test on HCT8 cells; details: Table 1
Description: as §1

[7] = test system: CC1227 Colon carcinoma; assay: Growth inhibition test on CC1227 cells; details: Table 1
Description: as §1

[8] = test system: Colo205 Colon carcinoma; assay: Growth inhibition test on Colo205 cells
Description: as §2, §3

[9] = test system: HCT-15 Colon carcinoma; assay: Growth inhibition test on HCT-15 cells; details: Table 1
Description: as §1

[10] = test system: JVSO Melanoma; assay: Growth inhibition test on JVSO cells; details: Table 1
Description: as §1

[11] = test system: MiaPaCa2 Pancreatic cancer; assay: Growth inhibition test on MiaPaCa2 cells; details: Table 1
Description: as §1

[12] = test system: M607 Melanoma; assay: Growth inhibition test on M607 cells; details: Table 1
Description: as §1

[13] = test system: Me128 Melanoma; assay: Growth inhibition test on Me128 cells; details: Table 1
Description: as §1

[14] = test system: HOS Osteosarcoma; assay: Growth inhibition test on HOS cells; details: Table 1
Description: as §1

[15] = test system: Panc1 Pancreatic cancer; assay: Growth inhibition test on Panc1 cells; details: Table 1
Description: as §1

[16] = test system: SaOS Osteosarcoma; assay: Growth inhibition test on SaOS cells; details: Table 1
Description: as §1

[17] = test system: MCF-7 Breast cancer; assay: Growth inhibition test on MCF-7 cells; details: Table 1
Description: as §1

[18] = test system: M518 Melanoma; assay: Growth inhibition test on M518 cells; details: Table 1
Description: as §1

[19] = test system: T47D Breast cancer; assay: Growth inhibition test on T47D cells
Description: as §2, §3

[20] = test system: SK-OV3 Ovarian cancer; assay: Growth inhibition test on SK-OV3 cells; details: Table 2
Description: as §1

[21] = test system: CRO2B Carcinoid; assay: Growth inhibition test on CRO2B cells; details: for IC50: CRO2B Carcinoid
Description: as §2, §3

[22] = test system: U 373 MG Astrocytoma; assay: Growth inhibition test on U 373 MG cells; details: Table 2
Description: as §1

[23] = test system: SK-OV4 Ovarian cancer; assay: Growth inhibition test on SK-OV4 cells
Description: as §1

[24] = test system: SW480 Colon; assay: Growth inhibition test on SW480 cells; details: for IC50: SW480 Colon
Description: as §2, §3

[25] = test system: CaCo-2 Colon; assay: Growth inhibition test on CaCo-2 cells; details: for IC50: CaCo-2 Colon
Description: as §2, §3

[26] = test system: Du145 Prostate; assay: Growth inhibition test on Du145 cells; details: for IC50: Du145 Prostate
Description: as §2, §3

[27] = test system: HT29, SW480, SK-OV4, PC3, SIM, CaCO-2, DU145 and CRO2B cells; assay: Growth inhibition, IC50 over eight cell lines of Table 2; details: CaCO-2, DU145, CRO2B
Description: as §1
The activities differ according to the cell line.

[28] = test system: SIM Sarcoma; assay: Growth inhibition test on SIM cells
Description: as §1
What is seen primarily in children are leukemias, neuroblastomas and Ewing's sarcoma/peripheral neuroectodermal tumors (group of the Ewing family of tumors=EFT). The investigated tumor cell lines include three EFTs (EW-7, SIM and KAL), as well as two neuroblastoma cell lines (NB: LAN1 and LAN5; Los Angeles neuroblastoma=LAN) (see Table 3).

[29] = test system: BT20 Breast; assay: Formazan test on BT20 cells; details: Table 4
Description: as §2, §3

[30] = test system: 10 cell lines (Table 4); assay: Formazan test, IC50 mean value for all cell lines of Table 4; details: mean over the 10 cell lines of Table 4
Description: as §2, §3

[31] = test system: MDA-MB-435 Breast; assay: Formazan test on MDA-MB-435 cells; details: Table 4
Description: as §2, §3

[32] = Table 1, BxPC3 Pancreatic cancer
[33] = Table 1, Colo205 Colon carcinoma

## N.N.O=C([O-])C1(C(=O)[O-])CCC1.[Pt+2] [Carboplatin, carboplatin]
[1]
  IC50: res (res=resistant=non-sensitive or IC50 value cannot be determined at a concentration of up to 40 μg/ml)
[2]
  IC50: 10 µg/mL
[3]; [32]
  IC50: 10 µg/mL
[4]; Table 1
  IC50: 10 µg/mL
[5]; Table 1, HT29 Colon carcinoma
  IC50: 20 µg/mL
[6]
  IC50: res (res=resistant=non-sensitive or IC50 value cannot be determined at a concentration of up to 40 μg/ml)
[7]
  IC50: res (res=resistant=non-sensitive or IC50 value cannot be determined at a concentration of up to 40 μg/ml)
[8]; [33]
  IC50: res (res=resistant=non-sensitive or IC50 value cannot be determined at a concentration of up to 40 μg/ml)
[9]
  IC50: res (res=resistant=non-sensitive or IC50 value cannot be determined at a concentration of up to 40 μg/ml)
[10]
  IC50: res (res=resistant=non-sensitive or IC50 value cannot be determined at a concentration of up to 40 μg/ml)
[11]
  IC50: 5 µg/mL
[12]
  IC50: 10 µg/mL
[13]
  IC50: 10 µg/mL
[14]
  IC50: 5 µg/mL
[15]
  IC50: 20 µg/mL
[16]
  IC50: 5 µg/mL
[17]
  IC50: res (res=resistant=non-sensitive or IC50 value cannot be determined at a concentration of up to 40 μg/ml)
[18]
  IC50: res (res=resistant=non-sensitive or IC50 value cannot be determined at a concentration of up to 40 μg/ml)

## N.N.[Cl][Pt][Cl] [Cisplatin, cisplatin]
[1]
  IC50: 1 µg/mL
[19]; Table 1, T47D Breast cancer
  IC50: 0.3 µg/mL
[2]
  IC50: 0.3 µg/mL
[3]; [32]
  IC50: 0.6 µg/mL
[4]; Table 1
  IC50: res (res=resistant=non-sensitive or IC50 value cannot be determined at a concentration of up to 40 μg/ml)
[5]; Table 1, HT29 Colon carcinoma
  IC50: 0.3 µg/mL
[6]
  IC50: 5 µg/mL
[7]
  IC50: 0.3 µg/mL
[8]; [33]
  IC50: 10 µg/mL
[9]
  IC50: 0.3 µg/mL
[10]
  IC50: 40 µg/mL
[11]
  IC50: 1.5 µg/mL
[12]
  IC50: 0.3 µg/mL
[13]
  IC50: 0.3 µg/mL
[15]
  IC50: 1 µg/mL
[17]
  IC50: 2.5 µg/mL
[18]
  IC50: 40 µg/mL

## O=C1[O][Pt]2([NH][C@@H]3CCCC[C@H]3[NH]2)[O]C1=O [Oxaliplatin, oxaliplatin]
[1]
  IC50: 10 µg/mL
[19]; Table 1, T47D Breast cancer
  IC50: 0.1 µg/mL
[2]
  IC50: 0.15 µg/mL
[3]; [32]
  IC50: 10 µg/mL
[5]; Table 1, HT29 Colon carcinoma
  IC50: 20 µg/mL
[6]
  IC50: res (res=resistant=non-sensitive or IC50 value cannot be determined at a concentration of up to 40 μg/ml)
[7]
  IC50: 0.2 µg/mL
[8]; [33]
  IC50: 1 µg/mL
[9]
  IC50: 10 µg/mL
[10]
  IC50: res (res=resistant=non-sensitive or IC50 value cannot be determined at a concentration of up to 40 μg/ml)
[11]
  IC50: 5 µg/mL
[12]
  IC50: 10 µg/mL
[13]
  IC50: 10 µg/mL
[15]
  IC50: 5 µg/mL
[17]
  IC50: res (res=resistant=non-sensitive or IC50 value cannot be determined at a concentration of up to 40 μg/ml)
[18]
  IC50: res (res=resistant=non-sensitive or IC50 value cannot be determined at a concentration of up to 40 μg/ml)

## [NH2][Pt]([NH2])([O-])([O-])([Cl])[Cl].[Na+].[Na+] [cis-Oxoplatin sodium salt, cis-diammoniumdichlorodihydroxoplatinum(IV) Disodium Salt]
[20]
  IC50: 22 µg/mL
[19]; Table 2, T47D Breast cancer
  IC50: 18 µg/mL
[21]; CRO2B, Na salt versus cis-oxoplatin
  efficiency compared with cis-oxoplatin: less efficient
[21]; Table 2
  IC50: 10.1 µg/mL
[22]
  IC50: 18 µg/mL
[3]; Table 2, BxPC3 Pancreatic carcinoma
  IC50: 12 µg/mL
[4]; PC3, Na salt versus cis-oxoplatin
  more effective than cis-oxoplatin: about 30%
[4]; Conc. 5 μg/ml
  % Survival: 109.3 ± 9.1%
[4]; Conc. 10 μg/ml
  % Survival: 77.7 ± 2.4%
[4]; Conc. 20 μg/ml
  % Survival: 33.2 ± 3.0%
[4]; Conc. 40 μg/ml
  % Survival: 0.6 ± 0.5%
[4]; Table 2
  IC50: 5.3 µg/mL
[5]; HT29, Na salt versus cis-oxoplatin
  more effective than cis-oxoplatin: about 70%
[5]; Table 2, HT29 Colon
  IC50: 4.55 µg/mL
[23]; SK-OV4, Na salt versus cis-oxoplatin
  more effective than cis-oxoplatin: about 30%
[23]; Table 2, SK-OV4 Ovarian cancer
  IC50: 12.8 µg/mL
[24]; SW480, Na salt versus cis-oxoplatin
  more effective than cis-oxoplatin: about 70%
[24]; Table 2
  IC50: 2.5 µg/mL
[25]; CaCO-2, Na salt versus cis-oxoplatin
  efficiency compared with cis-oxoplatin: less efficient
[25]; Table 2
  IC50: 2.22 µg/mL
[26]; DU145, Na salt versus cis-oxoplatin
  efficiency compared with cis-oxoplatin: less efficient
[26]; Table 2
  IC50: 27.0 µg/mL
[27]
  IC50 values of these cells (mean ± spread): 9.5 ± 8 µg/mL
[28]; SIM, Na salt versus cis-oxoplatin
  more effective than cis-oxoplatin: about 30%
[28]; Table 2, SIM Sarcoma
  IC50: 11.2 µg/mL

## cis-diammoniumdichlorodihydroxoplatinum(IV) Calcium Salt [Oxoplatin Ca]
[19]; Table 4, T47D Breast, formazan test
  IC50: 3.6 µg/mL
[21]; Table 4, formazan test
  IC50: 2.20 µg/mL
[3]; Table 4, BxPC3 Pancreas, formazan test
  IC50: 30.0 µg/mL
[5]; Table 4, HT29 Colon, formazan test
  IC50: 8.0 µg/mL
[29]
  IC50: 3.5 µg/mL
[30]
  IC50 (±SEM) mean value for all cell lines: 9.1 ± 2.8 µg/mL
[24]; Table 4, formazan test
  IC50: 2.5 µg/mL
[8]; Table 4, Colo205 Colon, formazan test
  IC50: 13.5 µg/mL
[25]; Table 4, formazan test
  IC50: 0.87 µg/mL
[26]; Table 4, formazan test
  IC50: 14.5 µg/mL
[31]
  IC50: 12.0 µg/mL
